Measured values published in PMC5007466, “VCP recruitment to mitochondria causes mitophagy impairment and neurodegeneration in models of Huntington's disease” (Nature Communications, 2016).

Key:
YAC128 mice = assay: EM of striatal mitophagosomes; assay type: in vivo, mouse; details: YAC128, 3 mg kg^−1 per day, age 3–9 months, per 100 μm^2
Description: The HdhQ7 and HdhQ111 cells were fixed by 2.5% glutaraldehyde in 0.1 M cacodylate buffer. Small pieces of the striata tissue of mice were fixed by immersion in triple aldehyde-DMSO. After rinsing in 0.1 M phosphate buffer (pH 7.3), the samples were post-fixed in ferrocyanide-reduced osmium tetroxide.
The above fixed samples were rinsed by water followed by overnight soaking in acidified uranyl acetate. After rinsing in distilled water, the blocks were dehydrated in ascending concentrations of ethanol, passed through propylene oxide, and embedded in Poly/Bed resin. Thin sections were sequentially stained with acidified uranyl acetate followed by a modification of Sato's triple lead stain. These sections were examined in a FEI Tecnai Spirit (T12) transmission electron microscope with a Gatan US4000 4kx4k CCD at the Case Western Reserve University EM core facility. Mitochondria from 15 random areas in each group were imaged by an experimenter blind to the experimental groups. The length of mitochondria was measured by NIH Image J software. The number of mitophagosomes per 100 μm^2 was counted. The number of gold particles labelling VCP on mitochondria were quantitated.
YAC128 mice (Tg) and their age-matched wt littermates were implanted with an osmotic pump containing TAT control peptide or HV-3 peptide (3 mg/kg/day, each) starting from the age of 3 months. […]

VCP/mtHtt interaction = target: T1, VCP/mtHtt interaction (Homo sapiens, UniProt P55072); assay: Co-immunoprecipitation of GFP-VCP and Myc-73Q FL (mtHtt) in HEK293 cells; assay type: cell-based; details: HEK293, Myc-73Q FL + GFP-VCP, 48 h
T1 construct: The full-length VCP wt and GFP-LC3B plasmids were obtained from Addgene; expressed in transfected cells; host or cells: HEK293
Protocol: (b) Stick drawings of VCP and Htt main domains. […] Immunoprecipitates were analysed by WB with the indicated antibodies. […] VCP mitochondrial levels were determined by WB. Loading control: VDAC. Data are mean±s.e.m. (g–i) ANOVA with Holm-Sidak post hoc test.
Myc-tagged full-length Htt with 23Q or 73Q plasmid was obtained from the CHDI foundation. The full-length VCP wt and GFP-LC3B plasmids were obtained from Addgene. To construct the mitochondria-targeting VCP plasmid, CMV-mito-GEM-GECO1 was digested with BamHI and HindIII, and VCP was PCR-amplified and inserted into the plasmid backbone. Site mutation of the VCP plasmid was performed using a site-mutagenesis kit (Agilent Technologies, Inc.). Cells were transfected with TransIT-2020 (Mirus Bio, LLC) following the manufacturer's protocol.
Human cervix carcinoma cells (HeLa cells) and HEK293 cells were maintained in DMEM supplemented with 10% FBS and 1% (v/v) penicillin/streptomycin.
Supplementary Figure 4: Rational design of a peptide inhibitor to block VCP/Htt interaction. […] Quantitation of VCP/Htt binding was shown below the blot as the m ean of three independent experiments. […] The blots of the bindings of mtHtt/VCP were quantitated with NIH Image J software. The IC50 was calculated. […]

[1] = tested on: HD patient-iPS cell derived neurons; assay: Mitochondrial length along neurites; assay type: cell-based, human; details: 1 μM per day for 5 days
Protocol: iPS cells from a normal subject and a HD patient (carrying 41 CAG repeats) were differentiated into neurons using the protocol from our previous studies. Briefly, iPS cells were plated onto 6-well plates precoated with 2.5% Matrigel and allowed to reach 90% confluence in feeder-free medium. For the first 10 days, cells were treated with SB431542 (10 μM; Tocris Bioscience) and Noggin (100 ng/ml) in Neural Media (NM) containing Neurobasal and DMEM (1:1), B27 supplement minus vitamin A (50 × , Invitrogen), N2 supplement (100 × , Invitrogen), GlutaMax (Invitrogen, 100 × ), FGF2 ([…]) and EGF ([…]), 100 units per ml penicillin and 100 μg ml^−1 streptomycin). For the next 10 days, cells were treated with human recombinant Sonic hedgehog (SHH, 200 ng/ml), DKK1 (100 ng/ml) and BDNF (20 ng/ml) and 10 μM Y27632 (Sigma) in neuronal differentiation medium containing Neurobasal and DMEM (1:3), B27, N2, GlutaMax and PS. […]
In patient-iPS cell-derived neurons, to ensure the observation of mitochondria in the medium spiny neurons, the cells were stained with a mitochondrial marker (anti-TOM20, 1:500) and markers for medium spiny neurons (DARPP-32, 1:200, Epitomics). The quantitation of neurite length was conducted only in the neurons immunopositive for both DARPP-32 and Tuj1 (neuron-specific class III beta-tubulin, 1:5,000, Covance). At least 50 neurons/group were counted.

For `CSCC[C@H](NC(=O)[C@@H](NC(=O)[C@H](CC(C)C)NC(=O)[C@@H](NC(=O)[C@H](Cc1c[nH]cn1)NC(=O)CCCCCNC(=O)[C@H](CCCNC(=N)N)NC(=O)[C@H](CCCNC(=N)N)NC(=O)[C@H](CCCNC(=N)N)NC(=O)[C@H](CCC(N)=O)NC(=O)[C@H](CCCNC(=N)N)NC(=O)[C@H](CCCNC(=N)N)NC(=O)[C@H](CCCCN)NC(=O)[C@H](CCCCN)NC(=O)[C@H](CCCNC(=N)N)NC(=O)CNC(=O)[C@@H](N)Cc1ccc(O)cc1)C(C)C)C(C)C)C(=O)N[C@@H](CS)C(=O)N[C@@H](C)C(=O)N[C@H](C(N)=O)[C@@H](C)O` [HV-3], the “number of mitophagosomes in striatum” value (YAC128 mice) was “reduced by HV-3 treatment”, the IC50 (VCP/mtHtt interaction; 0 to 4 µM, IP/WB quantitated, read-out: IC50 blocking VCP/mtHtt interaction) was 2110 nM and the “block of VCP/mtHtt interaction” value (VCP/mtHtt interaction; 3 µM/day, n = 3) was “only HV-3 peptide significantly blocked the VCP/mtHtt interaction”. For the same compound, the “mitochondrial length along neurites” value [1] was “improved MMP and mitochondrial length along neurites”.
